Where “and” joins values, the source holds several entries; their conditions need not be identical. Equal entries are not always repeated.
Experiments:
[1] = target: T1, Human Serum Albumin (HSA) (Homo sapiens, UniProt P02768); assay: Fluorescence quenching of HSA by PFAS (Stern–Volmer, double logarithmic and Van't Hoff analysis); format: binding; conditions: for quenching of HSA fluorescence intensity: PFAS 1.8 × 10^−5 mol·L^−1, HSA 1 × 10^−6 mol·L^−1, 298 K; for ΔH / ΔS: Van't Hoff, 298–310 K; for affinity for HSA: fluorescence quenching experiments; for main interaction force from thermodynamic analysis: signs of ΔH and ΔS
T1 construct: HSA (≥96%) and six PFAS were all purchased from Aladdin Chemicals (Shanghai, China); purchased Aladdin Chemicals (Shanghai, China)
Method: Fluorescence quenching experiments greatly benefit studies on the interactions between ligands and proteins. Initially, 3 mL of HSA stock solution was put into a 10 mm square quartz cuvette. Following that, PFAS stock solution was gradually added to achieve various final concentrations, namely 0, 3, 6, 9, 12, 15, 18 × 10^−6 mol·L^−1. By incrementally increasing the molar ratio of PFAS vs. HSA up to 18, their binding characteristics can be better investigated.
A thermostat (TR-01A, Bishui Corp, Beijing, China) was used to precisely control the solution temperature, which was set at 298, 304, and 310 K. This device includes a temperature controller and a metal heating cuvette module in conjunction with a fluorometer. This thermostat has a temperature range of 20–60 °C (293–333 K) and an accuracy of 0.1 °C Celsius. This step is critical for keeping the experimental conditions stable. Following that, the samples were fluorescence-scanned with a fluorometer (Cary Eclipse, Agilent, CA, USA). The excitation wavelength was set at 275 nm to efficiently stimulate tryptophan (Trp) and tyrosine (Tyr) residues. Additional test parameters include an emission of 275–500 nm, scanning rate of 1200 nm/min and PTV voltage of 700 v. Fluorescence quenching experiments were repeated three times, and the average values were taken for further calculation.
Fluorescence internal filtration (IFE) refers to the phenomenon where the fluorescence intensity decreases during fluorescence measurement due to the absorption of excitation or emission light by sample components (small molecules or proteins) in solution [19, 20]. This phenomenon is more obvious in the samples with a high concentration of adsorbent. A fluorescence correction formula was used in this study to correct the IFE effect on the data, as follows: Fcorr=Fobs×10^Aex+Aem/2 where Fcorr and Fobs are corrected and observed fluorescence emission intensities, respectively, Aex and Aem are UV-vis absorbances at the excitation and emission wavelengths.
The quenching constant can be calculated using the Stern–Volmer Equation (3). The results are shown in Table 2 and Figure 1: F0/F=1+Kqτ0=1+KsvQ where F0 and F refer to HSA fluorescence intensities without and with the quencher (PFAS solution); Kq is the biomacromolecule’s quenching rate constant; τ0 is the average fluorescence lifetime of the fluorescent molecule when the quencher PFAS is absent, usually taken as 10^−8 s; [Q] is the PFAS concentration; Ksv is the Stern–Volmer quenching constant; F0/F is the vertical axis; the Stern–Volmer curves of this system are 298, 304, and 310 K.
The double logarithmic formula can be used to calculate the binding constants and binding site numbers of HSA–PFAS complexes: logF0−F/F=logKb+nlogQ where F0 and F are parameters representing the initial fluorescence intensity and the fluorescence intensity after adding PFAS, respectively. The binding characteristics are represented by the binding constant, Kb, and the number of binding sites, n. The slope of the straight line is the number of binding sites, n, and the binding constant Kb is obtained from the exponent of the straight line’s intercept using the double logarithmic graph. Figure A2 and Table 2 show the calculation results.
The enthalpy change (∆H), entropy change (∆S), and free energy change (∆G) calculated from the Van’t Hoff equation [50] can be used to determine the type of interaction. lnKb=−ΔH/RT+ΔS/R ΔG=ΔH−TΔS=−RTlnKb where R represents the ideal gas constant (8.314 J·mol^−1·K^−1).

HSA [2] = target: T2, HSA (Homo sapiens, UniProt P02768); assay: Competitive probe experiment (warfarin, ibuprofen, lidocaine); format: binding
T2 construct: HSA (≥96%) and six PFAS were all purchased from Aladdin Chemicals (Shanghai, China); purchased Aladdin Chemicals (Shanghai, China)
Source text: Competitive probe experiments are commonly used to identify specific binding sites in the structure of proteins. Three probe molecules known to bind to distinct binding sites on HSA were selected: warfarin (subdomain IIA), ibuprofen (subdomain IIIA), and lidocaine (subdomain IIB). These probe molecules would compete with PFAS for the same protein sites when binding with HSA. The potential binding sites can be inferred by monitoring and comparing changes in fluorescence intensity when probe molecules are present.

HSA [3] = target: T2, HSA; assay: 3D-EEM fluorescence spectra of HSA–PFAS; conditions: HSA 1 × 10^−6, PFAS 1.8 × 10^−5 mol·L^−1; for 3D-EEM Peak A Intensity F: HSA alone 673.66; for 3D-EEM Peak B Intensity F: HSA alone 996.906
Method: The 3D-EEM spectra were recorded using specific scanning parameters at the scanning rate of 2400 nm·min^−1, an […] with 5 nm increments, and an emission of 280–550 nm with 2 nm increments. The concentrations of PFAS and HSA were set at 18 × 10^−6 mol·L^−1 and 1 × 10^−6 mol·L^−1, respectively.

HSA [4] = target: T2, HSA; assay: Circular dichroism (CD) spectrum, secondary structure of HSA; conditions: HSA:PFAS 1:18, 298 K; for HSA secondary structure: β-Sheet: HSA alone 4.9; for HSA secondary structure: β-Turn: HSA alone 16.9; for HSA secondary structure: Random Coil: HSA alone 36.7; for HSA secondary structure: α-Helix: HSA alone 41.6
Source text: CD measurements (190–260 nm) were taken before and after the addition of PFAS to HSA using a J-815 CD spectrometer equipped with a PMT detector (JASCO, Tokyo, Japan). The protein concentration was set at 1 × 10^−6 mol/L, with a fixed HSA-to-PFAS concentration ratio of 1:18. The scanning rate was set to 100 nm/min with 0.5 nm increments, and the photometric mode of HT. Each sample was scanned three times. The blank buffer control was automatically subtracted during the scanning process. All tests were carried out at 298 K. The CONTIN analysis method from the DichroWeb was employed to determine the contents of the protein’s secondary structure.

T1 sequence (P02768 25-609): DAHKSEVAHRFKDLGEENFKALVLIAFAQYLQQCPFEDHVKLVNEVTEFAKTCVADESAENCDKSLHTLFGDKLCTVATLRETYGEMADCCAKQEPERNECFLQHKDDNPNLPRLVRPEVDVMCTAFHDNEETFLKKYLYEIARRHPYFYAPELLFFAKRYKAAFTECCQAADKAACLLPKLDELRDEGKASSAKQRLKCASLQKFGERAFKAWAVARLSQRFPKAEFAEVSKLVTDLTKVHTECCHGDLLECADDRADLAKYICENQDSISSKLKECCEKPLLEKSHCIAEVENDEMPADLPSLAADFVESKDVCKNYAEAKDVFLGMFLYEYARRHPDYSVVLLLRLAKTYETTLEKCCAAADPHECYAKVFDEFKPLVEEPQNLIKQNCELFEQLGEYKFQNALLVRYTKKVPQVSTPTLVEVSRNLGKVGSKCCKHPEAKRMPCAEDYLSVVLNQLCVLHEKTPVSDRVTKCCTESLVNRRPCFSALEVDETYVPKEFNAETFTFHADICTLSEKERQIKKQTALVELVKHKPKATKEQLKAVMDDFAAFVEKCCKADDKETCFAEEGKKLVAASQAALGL
T2 sequence (P02768 25-609): as above

| Compound | fluorescence quenching mechanism [1] | quenching of HSA fluorescence intensity [1] [%] | KSV (Stern–Volmer quenching constant) ([1]; T = 298 K) | n (number of binding sites) ([1]; T = 298 K) | ΔG ([1]; T = 298 K) [kcal/mol] | Kq (quenching rate constant) ([1]; T = 298 K, τ0 taken as 10^−8 s) | KSV (Stern–Volmer quenching constant) ([1]; T = 304 K) | n (number of binding sites) ([1]; T = 304 K) | ΔG ([1]; T = 304 K) [kcal/mol] | Kq (quenching rate constant) ([1]; T = 304 K, τ0 taken as 10^−8 s) | KSV (Stern–Volmer quenching constant) ([1]; T = 310 K) | n (number of binding sites) ([1]; T = 310 K) | ΔG ([1]; T = 310 K) [kcal/mol] | Kq (quenching rate constant) ([1]; T = 310 K, τ0 taken as 10^−8 s) | ΔH [1] [kcal/mol] | ΔS [1] [J·mol^−1·K^−1] | affinity for HSA [1] | main interaction force from thermodynamic analysis [1] | φ (rate of decrease in Kb) (HSA [2]; ibuprofen probe) [%] | φ (rate of decrease in Kb) (HSA [2]; lidocaine probe) [%] | other results |
| --- | --- | --- | --- | --- | --- | --- | --- | --- | --- | --- | --- | --- | --- | --- | --- | --- | --- | --- | --- | --- | --- |
| O=C(O)C(F)(F)C(F)(F)C(F)(F)C(F)(F)C(F)(F)C(F)(F)C(=O)O [DFSA, Dodecafluorosuberic Acid] | static quenching | 9.7 | 0.58 ± 0.06 × 10^4 L·mol^−1 | 0.88 ± 0.02 | -4.338 | 0.58 ± 0.06 × 10^12 L·mol^−1·s^−1 | 0.51 ± 0.04 × 10^4 L·mol^−1 | 0.98 ± 0.05 | -5.136 | 0.51 ± 0.04 × 10^12 L·mol^−1·s^−1 | 0.45 ± 0.05 × 10^4 L·mol^−1 | 1.13 ± 0.07 | -6.123 | 0.45 ± 0.05 × 10^12 L·mol^−1·s^−1 | 40.031 ± 1.02 | 622.5 ± 15.3 | low affinity | hydrophobic interactions | 25.4 | 31.7 | φ (rate of decrease in Kb) (HSA [2]; warfarin probe): 93.3%; 3D-EEM Peak A Position λex/λem (HSA [3]): 280/336; 3D-EEM Peak B Position λex/λem (HSA [3]): 230/330; 3D-EEM Peak A Intensity F (HSA [3]): 629.75 a.u.; 3D-EEM Peak B Intensity F (HSA [3]): 839.38 a.u.; HSA secondary structure: β-Sheet (HSA [4]): 4.0%; HSA secondary structure: β-Turn (HSA [4]): 15.8%; HSA secondary structure: Random Coil (HSA [4]): 37.0%; HSA secondary structure: α-Helix (HSA [4]): 43.2% |
| O=C(O)C(F)(OC(F)(F)C(F)(OC(F)(F)C(F)(F)C(F)(F)F)C(F)(F)F)C(F)(F)F (centres unmarked) [HFPO-TA, Perfluoro-2,5-dimethyl-3,6-dioxanonanoic Acid] | mixed quenching | 25.1 | 1.78 ± 0.09 × 10^4 L·mol^−1 | 1.49 ± 0.03 | -8.956 | 1.78 ± 0.09 × 10^12 L·mol^−1·s^−1 | 1.95 ± 0.13 × 10^4 L·mol^−1 | 1.78 ± 0.07 | -11.03 | 1.95 ± 0.13 × 10^12 L·mol^−1·s^−1 | 1.98 ± 0.08 × 10^4 L·mol^−1 | 2.09 and 2.09 ± 0.08 | -13.28 | 1.98 ± 0.08 × 10^12 L·mol^−1·s^−1 | 98.506 ± 2.02 | 1508.3 ± 30.8 | high affinity | hydrophobic interactions | 23.8 | 35.3 | Kq (quenching rate constant) ([1]; 298 K): 1.78e+12 L/mol/s; HSA fluorescence peak position after PFAS addition (blue shift from 337 nm) ([1]; as the concentration of PFAS increases): 315 nm; φ (rate of decrease in Kb) (HSA [2]; warfarin probe): 99.6%; 3D-EEM Peak A Position λex/λem (HSA [3]): 280/321; 3D-EEM Peak B Position λex/λem (HSA [3]): 230/314; 3D-EEM Peak A Intensity F (HSA [3]): 499.16 a.u.; 3D-EEM Peak B Intensity F (HSA [3]): 861.38 a.u.; HSA secondary structure: β-Sheet (HSA [4]): 5.1%; HSA secondary structure: β-Turn (HSA [4]): 15.8%; HSA secondary structure: Random Coil (HSA [4]): 38.5%; HSA secondary structure: α-Helix (HSA [4]): 40.6% |
| O=C(O)C(F)(F)C(F)(F)C(F)(F)C(F)(F)C(F)(F)C(F)(F)F [PFHpA, Perfluoroheptanoic Acid] | static quenching | 12.1 | 0.69 ± 0.05 × 10^4 L·mol^−1 | 0.96 ± 0.04 | -4.986 | 0.69 ± 0.05 × 10^12 L·mol^−1·s^−1 | 0.53 ± 0.07 × 10^4 L·mol^−1 | 1.42 ± 0.06 | -7.968 | 0.53 ± 0.07 × 10^12 L·mol^−1·s^−1 | 0.32 ± 0.04 × 10^4 L·mol^−1 | 1.50 ± 0.05 | -8.332 | 0.32 ± 0.04 × 10^12 L·mol^−1·s^−1 | 77.672 ± 3.399 | 1166.7 ± 42.7 | low affinity | hydrophobic interactions | 42.7 | 48.8 | φ (rate of decrease in Kb) (HSA [2]; warfarin probe): 98.9%; 3D-EEM Peak A Position λex/λem (HSA [3]): 280/336; 3D-EEM Peak B Position λex/λem (HSA [3]): 230/335; 3D-EEM Peak A Intensity F (HSA [3]): 656.89 a.u.; 3D-EEM Peak B Intensity F (HSA [3]): 997.01 a.u.; HSA secondary structure: β-Sheet (HSA [4]): 5.5%; HSA secondary structure: β-Turn (HSA [4]): 15.5%; HSA secondary structure: Random Coil (HSA [4]): 39.4%; HSA secondary structure: α-Helix (HSA [4]): 39.6% |

Reference: PMC10819430, “Binding Affinity and Mechanism of Six PFAS with Human Serum Albumin: Insights from Multi-Spectroscopy, DFT and Molecular Dynamics Approaches” (Toxics, 2024)
